Measurements reported in US5037841A, “1,3-disubstituted pyrrolidines” (Bayer Aktiengesellschaft, priority 1988, dated 1991).
Structures can show the parent of a compound that is named as a salt. Where two headings read alike, the source gives them in different places.

Target: T1, 5-HT1 receptor (Bos taurus, UniProt F6Q2H9)
T1 construct: calf hippocampus membrane preparations; from tissue; host or cells: calf hippocampus membranes
T1 sequence (F6Q2H9 1-422): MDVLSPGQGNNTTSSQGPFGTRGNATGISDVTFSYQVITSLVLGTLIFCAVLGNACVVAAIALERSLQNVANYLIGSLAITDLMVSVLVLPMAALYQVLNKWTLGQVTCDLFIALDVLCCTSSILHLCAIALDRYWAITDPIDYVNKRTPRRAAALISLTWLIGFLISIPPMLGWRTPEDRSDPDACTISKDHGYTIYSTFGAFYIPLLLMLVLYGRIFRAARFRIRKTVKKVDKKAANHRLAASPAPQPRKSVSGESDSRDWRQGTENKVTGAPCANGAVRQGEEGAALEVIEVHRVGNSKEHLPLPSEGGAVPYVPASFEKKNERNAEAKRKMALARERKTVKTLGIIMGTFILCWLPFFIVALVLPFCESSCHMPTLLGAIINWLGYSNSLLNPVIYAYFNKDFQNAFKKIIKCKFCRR
Assay: Affinity for the 5-HT1 receptor: receptor binding studies using calf hippocampus membrane preparations, 3H-serotonin as radioligand
Excerpt: Affinity for the 5-HT1 receptor
The high affinity of the compound according to the invention for 5-hydroxytryptamine receptors of the subtype […] is represented by way of example in Table 4. The values indicated are data which have been determined from receptor binding studies using calf hippocampus membrane preparations. For this purpose, ^3 H-serotonin was used as a radioactively labelled ligand.

[1] = calf hippocampus membranes, 3H-serotonin radioligand, read-out: Ki

With `COc1ccccc1OC1CCN(C(C)C)C1` (stereo not shown) [Comparison, reference compound] the Ki (Comparison compound of DE-A 1,964,511, test conditions not restated, read-out: Ki value (comparison compound)) was 1000 nM.

With `N#Cc1ccccc1OC1CCN(CCCCN2C(=O)c3ccccc3S2(=O)=O)C1` (stereo not shown) [Example 1, 3-(2-Cyanophenoxy)-1-[4-(1,1-dioxido-3-oxo-2,3-dihydrobenzisothiazol-2-yl)butyl]-pyrrolidine oxalate] the Ki [1] was 2 nM.

In the case of `O=C1c2ccccc2S(=O)(=O)N1CCCCN1CCC(Oc2ccccc2)C1` (stereo not shown) [Example 6], the Ki [1] is reported as 9 nM.

For `COc1ccccc1OC1CCN(CCCCN2C(=O)c3ccccc3S2(=O)=O)C1` (stereo not shown) [Example 8, 3-(2-methoxyphenoxy)-1-[4-(1,1-dioxido-3-oxo-2,3-dihydrobenzisothiazol-2-yl)butyl]-pyrrolidine], the Ki [1] was 1.3 nM.

With `COc1cccc(OC2CCN(CCCCN3C(=O)c4ccccc4S3(=O)=O)C2)c1` (stereo not shown) [Example 10, 3-(3-methoxyphenoxy)-1-[4-(1,1-dioxido-3-oxo-2,3-dihydrobenzisothiazol-2-yl)butyl]-pyrrolidine] the Ki [1] was 6 nM.

With `NC(=O)c1ccccc1OC1CCN(CCCCN2C(=O)c3ccccc3S2(=O)=O)C1` (stereo not shown) [Example 19, 3-(2-carbamoylphenoxy)-1-[4-(1,1-dioxido-3-oxo-2,3-dihydrobenzisothiazol-2-yl)butyl]-pyrrolidine] the Ki [1] was 7 nM.

Work on `O=C1c2ccccc2S(=O)(=O)N1CCCCN1CCC(Oc2cccc3ccccc23)C1` (stereo not shown) [Example 23, 3-(1-naphthyloxy)-1-[4-(1,1-dioxido-3-oxo-2,3-dihydrobenzisothiazol-2-yl)butyl]-pyrrolidine] yielded a Ki [1] of 0.3 nM.
